# “Also recorded” adds a separate entry of the source.
# Experiments:
# [1] = target: T1, PT-biotin binding to fetuin (Bos taurus, UniProt P12763); experiment: PT-biotin binding to fetuin, binding inhibition assay; parameters: species or system Bordetella pertussis; details: for Percent Changes in Binding Activity PT/fetuin: peptide mg/mL: S2PL 1.2, ACS2P1 1.0, S2(14-2.3) 1.0, S2P2 1.1, S2P3 0.51, S2P4 0.98, S2P6 0.85, S3P1 3.2, S3P2 3.1, S3P3 4.5, S3P4 3.3, S3P5 0.48, S3P9a 1.7, SPYGRC 4.4, S2(WGA) 1.0, WGA (62-73) 1.0, + enhancement, − inhibition
# T1 construct: purchased Sigma Chemical Company (fetuin); Connaught Center for Biotechnology Research (PT)
# T1 sequence (P12763 19-359): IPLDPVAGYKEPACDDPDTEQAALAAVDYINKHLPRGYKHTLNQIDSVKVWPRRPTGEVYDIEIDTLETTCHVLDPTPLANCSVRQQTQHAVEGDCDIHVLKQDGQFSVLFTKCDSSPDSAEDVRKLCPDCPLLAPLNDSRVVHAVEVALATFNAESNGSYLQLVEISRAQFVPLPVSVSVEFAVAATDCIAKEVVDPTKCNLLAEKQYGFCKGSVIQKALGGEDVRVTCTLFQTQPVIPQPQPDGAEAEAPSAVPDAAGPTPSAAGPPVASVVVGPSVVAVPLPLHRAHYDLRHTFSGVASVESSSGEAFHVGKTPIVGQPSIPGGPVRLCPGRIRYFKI
# Method: (§1) Peptides ranging in concentration from 0.5 to 4.5 mg/ml in PBS (40 μl) were added to each well and PT-biotin (10 μl containing 10 ng in PBS) was then added to the microtiter wells. […] Horseradish peroxidase-conjugated avidin (100 μl, 1/3000 dilution in PBST to a concentration of 0.3 μg/ml) was then added to the wells, and the plates were incubated at ambient temperature for 1 hour. […] Color development was recorded at 405 nm using a Titertek Multiskan MC plate reader. […] Binding assays for each peptide were done in duplicate. Binding inhibition experiments utilizing SNA-, WGA-, and MAL-biotin were performed as described above using 10 ng of each biotinylated lectin in PBS.
# (§2) Binding assays for each inhibitor concentration were done at least in duplicate, and the average value varied less than 15%.
# [2] = target: T2, MAL-biotin binding to fetuin (Bos taurus, UniProt P12763); experiment: MAL-biotin binding to fetuin, binding inhibition assay; parameters: species or system Maackia amurensis; details: peptide mg/mL: S2PL 1.2, ACS2P1 1.0, S2(14-2.3) 1.0, S2P2 1.1, S2P3 0.51, S2P4 0.98, S2P6 0.85, S3P1 3.2, S3P2 3.1, S3P3 4.5, S3P4 3.3, S3P5 0.48, S3P9a 1.7, SPYGRC 4.4, S2(WGA) 1.0, WGA (62-73) 1.0; + enhancement, − inhibition
# T2 construct: purchased Sigma Chemical Company (fetuin); Boehringer Mannheim (MAL-biotin)
# T2 sequence (P12763 19-359): T1 sequence (P12763 19-359)
# Method: as §1, §2
# [3] = target: T3, SNA-biotin binding to fetuin (Bos taurus, UniProt P12763); experiment: biochemical; details: peptide mg/mL: S2PL 1.2, ACS2P1 1.0, S2(14-2.3) 1.0, S2P2 1.1, S2P3 0.51, S2P4 0.98, S2P6 0.85, S3P1 3.2, S3P2 3.1, S3P3 4.5, S3P4 3.3, S3P5 0.48, S3P9a 1.7, SPYGRC 4.4, S2(WGA) 1.0, WGA (62-73) 1.0; + enhancement, − inhibition
# T3 sequence (P12763 19-359): T1 sequence (P12763 19-359)
# Method: (§3) The solution was removed by aspiration and replaced with 100 μl of 1% BSA in PBS containing 0.05% Tween 20 (PBST). After incubation for 2-4 hours at room temperature, the microtiter wells were washed four times with 300 μl of PBST. Peptides ranging in concentration from 0.5 to 4.5 mg/ml in PBS (40 μl) were added to each well and PT-biotin (10 μl containing 10 ng in PBS) was then added to the microtiter wells. After incubating for 1 hour, the binding reaction was stopped by aspirating the solutions and the plate was washed with PBST (300 μl). Horseradish peroxidase-conjugated avidin (100 μl, 1/3000 dilution in PBST to a concentration of 0.3 μg/ml) was then added to the wells, and the plates were incubated at ambient temperature for 1 hour. After washing the wells as described above, the substrate solution [1 mM ABTS in 5 mM citrate buffer, pH 4.2, containing 0.1% hydrogen peroxide, v/v) was added and the plates were incubated for 30 minutes. Color development was recorded at 405 nm using a Titertek Multiskan MC plate reader. Maximum binding was determined in the absence of peptide, and background binding was measured in wells coated with BSA only. Binding assays for each peptide were done in duplicate. Binding inhibition experiments utilizing SNA-, WGA-, and MAL-biotin were performed as described above using 10 ng of each biotinylated lectin in PBS.
# [4] = target: T4, WGA-biotin binding to fetuin (Bos taurus, UniProt P12763); experiment: biochemical; details: peptide mg/mL: S2PL 1.2, ACS2P1 1.0, S2(14-2.3) 1.0, S2P2 1.1, S2P3 0.51, S2P4 0.98, S2P6 0.85, S3P1 3.2, S3P2 3.1, S3P3 4.5, S3P4 3.3, S3P5 0.48, SPYGRC 4.4, S2(WGA) 1.0, WGA (62-73) 1.0; + enhancement, − inhibition
# T4 sequence (P12763 19-359): T1 sequence (P12763 19-359)
# Method: as §3
# [5] = target: T5, PT-biotin binding to asialofetuin (Bos taurus, UniProt P12763); experiment: PT-biotin binding to asialofetuin, binding inhibition assay; parameters: species or system Bordetella pertussis; details: for Percent Changes in Binding Activity PT/asialo-fetuin: peptide mg/mL: S2PL 1.2, ACS2P1 1.0, S2P2 1.1, S2P3 0.51, S2P4 0.98, S2P6 0.85, S3P1 3.2, S3P2 3.1, S3P3 4.5, S3P4 3.3, S3P5 0.48, SPYGRC 4.4, + enhancement, − inhibition
# T5 construct: made in house
# T5 sequence (P12763 19-359): T1 sequence (P12763 19-359)
# Method: as §1, §2
# [6] = target: T6, ACS2P1-biotin binding to fetuin (Bos taurus, UniProt P12763); experiment: biochemical; details: for Percent Change in Binding Activity Fetuin: peptide μM: ACS2P1 4.1, S2P2 42.5, SPYGRC 5520, S2P3 22.4, S2P4 6.0, S2P6 319, S3P1 1142, S3P2 934, S3P3 16.1, S3P4 6.4, S3P5 22.5, ACS2P1-biotin 0.1 μg, − inhibition, + enhancement
# T6 construct: purchased Sigma Chemical Company
# T6 sequence (P12763 19-359): T1 sequence (P12763 19-359)
# [7] = target: T7, ACS2P1-biotin binding to asialofetuin (Bos taurus, UniProt P12763); experiment: Screening of S2 and S3 peptides for inhibition of ACS2P1-biotin binding to asialofetuin; details: for Percent Change in Binding Activity Asialofetuin: peptide μM: ACS2P1 4.1, S2P2 42.5, SPYGRC 5520, S2P3 22.4, S2P4 6.0, S2P6 319, S3P1 1142, S3P2 934, S3P3 16.1, S3P4 6.4, S3P5 22.5, ACS2P1-biotin 0.1 μg, − inhibition, + enhancement
# T7 construct: made in house
# T7 sequence (P12763 19-359): T1 sequence (P12763 19-359)
# [8] = tested on: pertussis toxin binding to Chinese Hamster ovary (CHO) cell; experiment: CHO cell neutralization of pertussis toxin (cell clumping); assay type: cell-based; details: PT 2.4 ng/ml, peptide and PT 1 hour, triplicate
# Method: Confluent monolayers of CHO cells were lifted from plastic tissue culture flasks with 0.25% trypsin and suspended at a concentration of 5×10^4 cells/ml in Ham's F12 media containing 10% fetal bovine serum (FBS). 100 μl of the cell suspension was added to 96 well tissue culture plates and were allowed to establish contact with the plastic for 24 to 48 hours. The expended media was then removed and filtered-sterilized peptide 5-fold dilutions ranging in concentration from 300 to 30 femptogram per ml (80 μl) in Ham' F12 media containing FBS were added to the CHO cells. […] The incubation mixtures were gently mixed and incubated at 37° C. for 1 hour in a CO2 incubator. The incubation mixtures were then removed and replaced with fresh media. The tissue culture plates were then incubated for 24 hours at 37° C., fixed with 100% methanol, and stained with Geimsa stain. Control experiments were done in the absence of peptide alone or in the absence of PT. All determinations were done in triplicate. […] The results reported in Table VIII show the maximum peptide concentration required to cause a 50% reduction in CHO cell clumping.
# [9] = target: SPYGRC-biotin binding to fetuin (Bordetella pertussis, UniProt P04978); experiment: Inhibition of SPYGRC-biotin binding to fetuin by simple saccharides; details: saccharide 8 mM in PBS, 0.5 μg SPYGRC-biotin, fetuin 3 μg/ml, + enhancement
# Method: Binding inhibition assays were done using sialic acid, sialyllactose, lactose, or N-acetyl-glucosamine at a concentration of 8 mM in PBS. […] The pH of free sialic acid was carefully monitored and adjusted to physiological pH values with dilute sodium hydroxide.
# [10] = target: T8, ACS2P1-biotin binding to fetuin (Bordetella pertussis, UniProt P04978); details: saccharide 8 mM in PBS; 0.1 μg ACS2P1-biotin; fetuin 3 μg/ml; + enhancement, − inhibition
# T8 construct: 2; ACS2P1-b; 9-23; made in house; host or cells: chemical synthesis
Compound,"effect on PT-biotin binding to fetuin, in words [1]",enhancement of PT-biotin binding to fetuin relative to control experiments in the absence of peptide ([1]; initial peptide screening),Percent Changes in Binding Activity PT/fetuin [1],Percent Changes in Binding Activity MAL/fetuin [2],Percent Changes in Binding Activity SNA/fetuin [3],Percent Changes in Binding Activity WGA/fetuin [4],Percent Changes in Binding Activity PT/asialo-fetuin [5],IC50 [6],decrease in affinity relative to ACS2P1 ([6]; from IC50 values),Percent Change in Binding Activity Fetuin [6],"competition for the binding of ACS2P1-biotin to asialofetuin, in words [7]",Percent Change in Binding Activity Asialofetuin [7],Maximal Inhibitory Concentration for Greater than 50% Inhibition [8],Percent Changes in Binding Activity SPYGRC-biotin (n = 3) [9],Percent Changes in Binding Activity ACS2P1-biotin (n = 3) [10],"effect on PT-biotin binding to asialofetuin, in words [5]","IC50 PT-b (asialofetuin) ([5]; wells coated with 3 μg/ml asialofetuin, 2-fold dilutions of peptide in PBS)","inhibition of ACS2P1-biotin binding to fetuin, in words [6]"
CC[C@H](C)[C@H](NC(=O)CNC(=O)[C@@H]1CCCN1C(=O)[C@@H](NC(=O)[C@@H](N)CO)[C@@H](C)O)C(=O)N[C@H](C(=O)N[C@H](C(=O)N1CCC[C@H]1C(=O)N1CCC[C@H]1C(=O)N[C@@H](CCC(N)=O)C(=O)N[C@@H](CCC(=O)O)C(=O)N[C@@H](CCC(N)=O)C(=O)N[C@H](C(=O)N[C@H](C(=O)N[C@@H](CCC(N)=O)C(=O)N[C@@H](Cc1c[nH]cn1)C(=O)NCC(=O)N[C@@H](CO)C(=O)N1CCC[C@H]1C(=O)N[C@@H](Cc1ccc(O)cc1)C(=O)NCC(=O)N[C@@H](CCCNC(=N)N)C(=O)N[C@@H](CS)C(=O)O)[C@@H](C)O)[C@@H](C)CC)[C@@H](C)CC)C(C)C [Peptide S2P2],enhancement of binding of PT to fetuin,~2 fold,+58 ± 4%,+14 ± 2%,−1 ± 1%,−15 ± 2%,+33(1) Percent,42.5 µM,10 fold,−50%,unable to compete for the binding of ACS2P1-biotin to asialofetuin,+6 ± 1%,NI (Not inhibitory at a peptide concentration of 300 ng/ml.),–,–,–,–,–
CC(=O)N[C@H]1[C@H]([C@H](O)[C@H](O)CO)OC(O)(C(=O)O)C[C@@H]1O (stereo partly drawn) [Sialic acid],–,–,–,–,–,–,–,–,–,–,–,–,–,+9 ± 8%,–,–,–,–
OC[C@H]1O[C@@](CO)(O[C@H]2O[C@H](CO)[C@@H](O)[C@H](O)[C@H]2O)[C@@H](O)[C@@H]1O [Sucrose],–,–,–,–,–,–,–,–,–,–,–,–,–,–,0 ± 3%,–,–,–
CITTIYKTGQPAADHYYSKVTA [Peptide S3P3],–,–,+19 ± 67%,+13 ± 15%,+3 ± 0%,+6 ± 3%,−28 ± 7%,–,–,−13 ± 16%,–,−10 ± 11%,–,–,–,reduce binding of PT to asialofetuin only; also recorded: inhibit PT-biotin's interaction with asialofetuin in a concentration-dependent manner,above the solubility limits of the peptide in PBS,–
PKALFTQQGGAYGRC [Peptide S3P1],–,–,+54 ± 25%,+4 ± 6%,−2 ± 1%,−9 ± 4%,+45 ± 16%,–,–,+245 ± 28%,–,+4 ± 0%,NI (Not inhibitory at a peptide concentration of 300 ng/ml.),–,–,–,–,inability
Sialyllactose,–,–,–,–,–,–,–,–,–,–,–,–,–,−24 ± 6%,−46 ± 3%,–,–,–
VAPGIVIPPKALFTQQGGAYGRC [Peptide S3P2],–,–,+77 ± 59%,+12 ± 16%,+3 ± 3%,+9 ± 4%,+82 ± 11%,–,–,+88 ± 72%,–,+12 ± 16%,NI (Not inhibitory at a peptide concentration of 300 ng/ml.),–,–,–,–,inability
YDGKYWSMYSRLRKMLY [Peptide S2P4],–,–,+14 ± 22%,+2(1) Percent,+3(1) Percent,+15 ± 1%,−3(1) Percent,–,–,−8 ± 16%,–,+2 ± 4%,–,–,–,–,–,–

# Reference: patent publication US20020054880A1, “Anti-inflammatory, tolerogenic and immunoinhibiting properties of carbohydrate binding-peptides” (priority 1992, published 2002)
